Experimental data from publication PMC8131842, “Therapeutic Potential of Vasoactive Intestinal Peptide and its Derivative Stearyl-Norleucine-VIP in Inflammation-Induced Osteolysis” (Frontiers in Pharmacology, 2021).

Legend:
[1] = system: Primary murine macrophages/preosteoclasts; assay: MTT viability assay; format: cell-based, mouse; details: 10^-6 M, 20 ng/ml M-CSF, 1, 3 and 5 days of treatment, N=5
Procedure: MTT assay. For proliferation assay, macrophages were plated (4000 cells/well) into 96-well plate with standard medium supplemented with 20 ng of M-CSF. Cells were treated as indicated with either TiP, SNV, VIP (10^−6 M) or vehicle at first day of incubation. Cells viability was determined using dimethylthiazol-diphenyl-tetrazolium-bromide (MTT) after 1, 3 or 5 days. MTT was added to a final concentration of 5 mg/ml and incubated for 4 h at 37°C. After complete solubilization of the die in DMSO, plates were read at 570 nm in a colorimetric plate reader.
FIGURE 4 VIP and SNV alleviate the osteoclastogenic effect of TiP-induced inflammation. (A) Primary BMDM were exposed to TiP and RNA was collected after 24 h. mRNA expression are presented as Mean±SD fold change versus Control. * p<0.05 vs. Control. (B-D) Primary murine preosteoclasts were cultured in 20 ng/ml M-CSF and 50 ng/ml RANKL for 48 h. Conditioned medium from macrophages (Control) and macrophages exposed to Ti particles (Ti, as in A) was then added together with 10^-6M of VIP or SNV (or saline) for 48 h before TRAP staining. Data are Mean±SD for osteoclast % surface area (B) and number per well (C). (D) Representative images all acquired at a 4x original magnification. The scale bar for all images is in the upper left panel. n=8, #p<0.05 vs. Control; *p<0.05 vs. Ti, ANOVA. […]

[2] = matrix not given, ref Gozes et al., 1994, 1996; cited from earlier work
Excerpt: VIP derivatives and conjugates were designed to include a lipophilic moiety or a shortened VIP chain ([Gozes and Fridkin, 1992]; [Gozes et al., 1994]; [Gozes et al., 1995]; [Gozes et al., 1996]; [Gozes et al., 1999]). Stearyl-norleucine-VIP (Stearyl-Nle^17VIP, SNV) is a lipophilic compound consisting of a VIP molecule with an N-terminal attachment of stearic acid to increase cell and tissue bioavailability and an exchange of the oxidation-vulnerable methionine at position 17 with the stable norleucine.

Guinea pigs = assay: Study 003 skin sensitization: adjuvant and patch test; format: in vivo, guinea pig; details: daily applications for 3 days, SNV 7 mg/animal (1000X)
Procedure: Toxicology. We performed toxicology studies for SNV that consisted of acute subcutaneous, intravenous and oral toxicity in rats, acute dermal toxicity in rabbits, skin sensitization using adjuvant and patch test in guinea pigs, and single and repeated (for 13 weeks) dose toxicity studies in rats. The latter was a 90-days repeated dose toxicity study, consisting of SNV once a day at three different doses to the penis and vagina of male and female rats, respectively. The compound was tested for the treatment of erectile dysfunction. The active dose (7 µg SNV) was chosen as the lowest dose for the study. The highest dosage group in the repeated dose toxicity study received 3,500 µg ([Gozes et al., 1994]). For study 001 (parts 1 through 3), the 1× dose consisted of 0.5 mg SNV dissolved in 7.1 ml vehicle (3.55 ml 10% Sefsol [glycerin monocaprylate] + 3.55 ml isopropanol) and 100µl/animal were administered; the 1000X dose consisted of 91 mg SNV dissolved in 1.3 ml vehicle (0.65 ml 10% Sefsol +0.65 ml isopropanol) and 100µl/animal were administered. For studies 002 through 004, the indicated doses of SNV (Table 1) were dissolved in 0.25 ml 10% Sefsol +0.25 ml 40% isopropanol (vehicle). The methodology for each of the toxicology studies is detailed in Table 1.

Row | Structure (SMILES) | Viability of the cells (MTT, optical density) [1] | Half-life [2] | Mortality (Guinea pigs; adjuvant and patch test) | Skin reactions (Guinea pigs; intradermal Freund's complete adjuvant and patch application, 3 males + 3 females per group)
1 | CC[C@H](C)[C@H](NC(=O)[C@H](CO)NC(=O)[C@H](CC(N)=O)NC(=O)[C@H](CC(C)C)NC(=O)[C@H](Cc1ccc(O)cc1)NC(=O)[C@H](CCCCN)NC(=O)[C@H](CCCCN)NC(=O)[C@@H](NC(=O)[C@H](C)NC(=O)[C@H](CCSC)NC(=O)[C@H](CCC(N)=O)NC(=O)[C@H](CCCCN)NC(=O)[C@H](CCCN=C(N)N)NC(=O)[C@H](CC(C)C)NC(=O)[C@H](CCCN=C(N)N)NC(=O)[C@@H](NC(=O)[C@H](Cc1ccc(O)cc1)NC(=O)[C@H](CC(N)=O)NC(=O)[C@H](CC(=O)O)NC(=O)[C@@H](NC(=O)[C@H](Cc1ccccc1)NC(=O)[C@@H](NC(=O)[C@H](C)NC(=O)[C@H](CC(=O)O)NC(=O)[C@H](CO)NC(=O)[C@@H](N)Cc1c[nH]cn1)C(C)C)[C@@H](C)O)[C@@H](C)O)C(C)C)C(=O)N[C@@H](CC(C)C)C(=O)N[C@@H](CC(N)=O)C(N)=O [VIP, Vasoactive intestinal peptide] | neither VIP nor SNV affected the viability | ~30 s |  | 
2 | O=[N+]([O-])c1ccc(Cl)c([N+](=O)[O-])c1 [1%-chloro-2,4-dinitrobenzene, reference compound] |  |  | None | severe erythema, edema and necrosis
